According to patent US9896418B2, “Aryl ethers and uses thereof” (Peloton Therapeutics, Inc., priority 2013, dated 2018):

Test system: HIF-2α HIS TAG-PASB Domain
Assay: HIF-2α Scintillation Proximity Assay (SPA)
Format: binding
Procedure: The percent inhibition was determined and IC50 values were calculated using the Dotmatics system based on the following equation: % inhibition=[(high control−sample)/(high control−low control)]×100.

SMILES	IC50
O=[N+]([O-])c1c(Oc2cccc(Cl)c2)ccc(C(F)(F)F)c1Cl [Compound 204, 2-Chloro-4-(3-chlorophenoxy)-3-nitro-1-(trifluoromethyl)benzene 1,3-dichloro-2-nitro-4-(trifluoromethyl)benzene]	210 nM
N#Cc1cc(F)cc(Oc2ccc(S(=O)(=O)C(F)F)c3c2CC(F)(F)[C@H]3N)c1 [Compound 207, (S)-3-((1-Amino-7-((difluoromethyl)sulfonyl)-2,2-difluoro-2,3-dihydro-1H-inden-4-yl)oxy)-5-fluorobenzonitrile]	500 nM
N#Cc1cc(F)cc(Oc2ccc(S(=O)(=O)C3CCC3)c3c2CCC3O)c1 (stereo not shown) [Compound 208, 3-((7-(Cyclobutylsulfonyl)-1-hydroxy-2,3-dihydro-1H-inden-4-yl)oxy)-5-fluorobenzonitrile]	> 100000 nM
CO[C@H]1c2c(S(C)(=O)=O)ccc(Oc3cc(F)cc(C#N)c3)c2CC1(F)F [Compound 210, (S)-3-((2,2-Difluoro-1-methoxy-7-(methylsulfonyl)-2,3-dihydro-1H-inden-4-yl)oxy)-5-fluorobenzonitrile]	17000 nM
Cc1cc(Oc2cc(F)cc(C#N)c2)c2c(c1S(C)(=O)=O)C(O)C(F)(F)C2 (stereo not shown) [Compound 213, 3-((2,2-Difluoro-1-hydroxy-6-methyl-7-(methylsulfonyl)-2,3-dihydro-1H-inden-4-yl)oxy)-5-fluorobenzonitrile]	800 nM
N#Cc1cc(Oc2ccc(S(=O)(=O)C(F)(F)F)c3c2CCC3O)ccc1F (stereo not shown) [Compound 216, 2-Fluoro-5-((1-hydroxy-7-((trifluoromethyl)sulfonyl)-2,3-dihydro-1H-inden-4-yl)oxy)benzonitrile]	2700 nM
O=S(=O)(c1ccc(Oc2ccc(F)c(Cl)c2)c2c1C(O)CC2)C(F)(F)F (stereo not shown) [Compound 218, 4-(3-Chloro-4-fluorophenoxy)-7-((trifluoromethyl)sulfonyl)-2,3-dihydro-1H-inden-1-ol]	810 nM
O=S(=O)(c1ccc(Oc2cccc3[nH]ncc23)c2c1C(O)C(F)(F)C2)C(F)(F)F (stereo not shown) [Compound 243]	250 nM
O=S(=O)(c1ccc(Oc2c(F)ccc3[nH]ncc23)c2c1C(O)C(F)(F)C2)C(F)(F)F (stereo not shown) [Compound 244, 2,2-Difluoro-4-((5-fluoro-1H-indazol-4-yl)oxy)-7-((trifluoromethyl)sulfonyl)-2,3-dihydro-1H-inden-1-ol]	1000 nM
CS(=O)(=O)c1ccc(Oc2cc(C#N)cc(C(F)F)c2)c2c1C(O)CC2 (stereo not shown) [Compound 249, 3-(Difluoromethyl)-5-((1-hydroxy-7-(methylsulfonyl)-2,3-dihydro-1H-inden-4-yl)oxy)benzonitrile]	880 nM
N#Cc1cncc(Oc2ccc(S(N)(=O)=O)c3c2CC(F)(F)[C@H]3O)c1 [Compound 253, (S)-7-((5-Cyanopyridin-3-yl)oxy)-2,2-difluoro-3-hydroxy-2,3-dihydro-1H-indene-4-sulfonamide]	18000 nM
N#Cc1cc(F)cc(Oc2ccc(S(=N)(=O)C(F)(F)F)c3c2CCC3O)c1 (stereo not drawn) [Compound 258, 3-Fluoro-5-((1-hydroxy-7-(S-(trifluoromethyl)sulfonimidoyl)-2,3-dihydro-1H-inden-4-yl)oxy)benzonitrile]	410 nM
O=S(=O)(c1ccc(Oc2cc(F)c(F)c3[nH]ncc23)c2c1C(O)C(F)(F)C2)C(F)(F)F (stereo not shown) [Compound 261, 4-((6,7-Difluoro-1H-indazol-4-yl)oxy)-2,2-difluoro-7-((trifluoromethyl)sulfonyl)-2,3-dihydro-1H-inden-1-ol]	640 nM
O=S(=O)(c1ccc(Oc2cc(F)cc3[nH]ncc23)c2c1C(O)C(F)(F)C2)C(F)(F)F (stereo not shown) [Compound 262, 2,2-Difluoro-4-((6-fluoro-1H-indazol-4-yl)oxy)-7-((trifluoromethyl)sulfonyl)-2,3-dihydro-1H-inden-1-ol]	4900 nM
C[S+]([O-])c1ccc(Oc2cc(F)cc(C#N)c2)c2c1[C@H](O)C(F)(F)C2 (stereo partly drawn) [Compound 272, 3-[(1S)-2,2-Difluoro-1-hydroxy-7-methylsulfinyl-indan-4-yl]oxy-5-fluoro-benzonitrile]	2000 nM
C=C1CC(O)c2c(S(C)(=O)=O)ccc(Oc3cc(F)cc(Cl)c3)c21 (stereo not shown) [Compound 280, 4-(3-chloro-5-fluorophenoxy)-3-methylene-7-(methylsulfonyl)-2,3-dihydro-1H-inden-1-ol]	3400 nM
N#CN=S(=O)(CF)c1ccc(Oc2cc(F)cc(C#N)c2)c2c1[C@H](O)CC2 (stereo partly drawn) [Compound 282, N—(((R)-7-(3-cyano-5-fluorophenoxy)-3-hydroxy-2,3-dihydro-1H-inden-4-yl)(fluoromethyl)(oxo)-λ^6-sulfanylidene)cyanamide]	7200 nM
N#CN=S(=O)(CF)c1ccc(Oc2cc(F)cc(C#N)c2)c2c1[C@H](O)CC2 (stereo partly drawn) [Compound 283, N—(((R)-7-(3-cyano-5-fluorophenoxy)-3-hydroxy-2,3-dihydro-1H-inden-4-yl)(fluoromethyl)(oxo)-λ^6-sulfanylidene)cyanamide]	1400 nM
N#Cc1cc(F)cc(Oc2ccc(S(=O)(=O)C(F)(F)F)c3c2CC(F)(F)[C@H]3NCCO)c1 [Compound 291, 3-[(1S)-2,2-difluoro-1-(2-hydroxyethylamino)-7-(trifluoromethylsulfonyl)indan-4-yl]oxy-5-fluoro-benzonitrile]	4900 nM

More lines, in order of falling IC50, values ahead:

IC50	SMILES
17000 nM	CS(=O)(=O)c1cc(F)c(Oc2cc(F)cc(C#N)c2)c2c1C(O)C(F)(F)C2 (stereo not shown) [Compound 219, 3-Fluoro-5-((2,2,5-trifluoro-1-hydroxy-7-(methylsulfonyl)-2,3-dihydro-1H-inden-4-yl)oxy)benzonitrile]
17000 nM	N#Cc1cc(F)cc(Oc2ccc(Br)c3c2C(F)(F)C(F)(F)C3)c1 [Compound 248, 3-((7-Bromo-2,2,3,3-tetrafluoro-2,3-dihydro-1H-inden-4-yl)oxy)-5-fluorobenzonitrile]
5600 nM	CS(=O)(=O)N=S(=O)(CF)c1ccc(Oc2cc(F)cc(C#N)c2)c2c1[C@H](O)C(F)(F)C2 (stereo partly drawn) [Compound 284, N—(((S)-7-(3-cyano-5-fluorophenoxy)-2,2-difluoro-3-hydroxy-2,3-dihydro-1H-inden-4-yl)(fluoromethyl)(oxo)-λ^6-sulfanylidene)methanesulfonamide]
4900 nM	O=S(=O)(c1ccc(Oc2ccc3[nH]ncc3c2)c2c1C(O)C(F)(F)C2)C(F)(F)F (stereo not shown) [Compound 238, 4-((1H-Indazol-5-yl)oxy)-2,2-difluoro-7-((trifluoromethyl)sulfonyl)-2,3-dihydro-1H-inden-1-ol]
3500 nM	N#Cc1cc(F)cc(Oc2ccc(S(=O)(=O)C(F)(F)F)c3c2CC(F)C3N)c1 (stereo not shown) [Compound 268, 3-((1-amino-2-fluoro-7-((trifluoromethyl)sulfonyl)-2,3-dihydro-1H-inden-4-yl)oxy)-5-fluorobenzonitrile]
2400 nM	CCS(=O)(=O)c1ccc(Oc2cc(F)cc(C#N)c2)c2c1C(O)CC2 (stereo not shown) [Compound 205, 3-((7-(Ethylsulfonyl)-1-hydroxy-2,3-dihydro-1H-inden-4-yl)oxy)-5-fluorobenzonitrile]
2100 nM	CNS(=O)(=O)c1ccc(Oc2cc(F)cc(F)c2)c2c1C(O)CC2 (stereo not shown) [Compound 211, 7-(3,5-Difluorophenoxy)-3-hydroxy-N-methyl-2,3-dihydro-1H-indene-4-sulfonamide]
1900 nM	NS(=O)(=O)c1ccc(Oc2cc(F)cc(F)c2)c2c1C(O)CC2 (stereo not shown) [Compound 257, 7-(3,5-Difluorophenoxy)-3-hydroxy-2,3-dihydro-1H-indene-4-sulfonamide]
1300 nM	N#Cc1cc(F)cc(Oc2ccc(S(=O)(=O)CCO)c3c2CC(F)(F)C3O)c1 (stereo not shown) [Compound 250, 3-((2,2-Difluoro-1-hydroxy-7-((2-hydroxyethyl)sulfonyl)-2,3-dihydro-1H-inden-4-yl)oxy)-5-fluorobenzonitrile]
720 nM	CS(=O)(=O)c1ccc(Oc2cc(F)cc(C#N)c2)c2c1[C@H](O)C(F)(F)[C@H]2F [Compound 293, 3-fluoro-5-[(1S,3S)-2,2,3-trifluoro-1-hydroxy-7-methylsulfonyl-indan-4-yl]oxy-benzonitrile]
700 nM	N#Cc1cncc(Oc2ccc(S(=O)(=O)C(F)(F)F)c3c2CCC3O)c1 (stereo not shown) [Compound 220, 5-((1-Hydroxy-7-((trifluoromethyl)sulfonyl)-2,3-dihydro-1H-inden-4-yl)oxy)nicotinonitrile]
670 nM	O=S(=O)(c1ccc(Oc2ccc(F)cc2)c2c1C(O)CC2)C(F)(F)F (stereo not shown) [Compound 212, 4-(4-Fluorophenoxy)-7-((trifluoromethyl)sulfonyl)-2,3-dihydro-1H-inden-1-ol]
380 nM	O=S(=O)(c1ccc(Oc2c(F)ccc3[nH]ncc23)c2c1[C@H](O)C(F)(F)C2)C(F)(F)F [Compound 264, (S)-2,2-Difluoro-4-((5-fluoro-1H-indazol-4-yl)oxy)-7-((trifluoromethyl)sulfonyl)-2,3-dihydro-1H-inden-1-ol]
310 nM	CS(=O)(=O)c1ccc(Oc2cc(F)cc(C#N)c2)c2c1C(=O)C(F)(Cl)C2 (stereo not shown) [Compound 269, 3-((2-chloro-2-fluoro-7-(methylsulfonyl)-1-oxo-2,3-dihydro-1H-inden-4-yl)oxy)-5-fluorobenzonitrile]
230 nM	O=S(=O)(c1ccc(Oc2ccc(F)c(F)c2)c2c1C(O)CC2)C(F)(F)F (stereo not shown) [Compound 214, 4-(3,4-Difluorophenoxy)-7-((trifluoromethyl)sulfonyl)-2,3-dihydro-1H-inden-1-ol]
230 nM	CS(=O)(=O)c1ccc(Oc2cc(F)cc(C#N)c2)c2c1[C@H](O)C[C@@H]2F [Compound 295, 3-fluoro-5-[(1R,3S)-3-fluoro-1-hydroxy-7-methylsulfonyl-indan-4-yl]oxy-benzonitrile]
77 nM	O=[N+]([O-])c1c(Oc2cc(F)cc(Cl)c2)ccc(C(F)(F)F)c1Cl [Compound 203, 2-Chloro-4-(3-chloro-5-fluorophenoxy)-3-nitro-1-(trifluoromethyl)benzene]
25 nM	O=S(=O)(c1ccc(Oc2cccc3[nH]ncc23)c2c1[C@H](O)C(F)(F)C2)C(F)(F)F [Compound 263, (S)-4-((1H-Indazol-4-yl)oxy)-2,2-difluoro-7-((trifluoromethyl)sulfonyl)-2,3-dihydro-1H-inden-1-ol]
